Laboratory results from patent US11453647B2, “Benzimidazole derivatives as adenosine receptor antagonists” (Merck Patent GmbH, priority 2017, dated 2022).

Legend:
mouse Pan T cells [1] = experiment: mouse Pan T cell IL-2 rescue from A2A agonist CGS-21680 (ELISA, 24 h); assay type: cell-based; settings: for IC50: Mus musculus, T-cell
From the text: (§1) Adenosine (Ado) in tumor microenvironment can inhibit T cell activity by signaling through A2A receptors and suppress cytokine secretion by T cells. […] Potential A2A antagonists or A2A/A2B dual antagonists can rescue T cells from this inhibition. Herein, we describe the in vitro system we established using Pan T cells from mouse spleens to screen potential A2A antagonists or A2A/A2B dual antagonists for their activity. The method described involves the use of CD3/CD28 pre-coated beads to stimulate Pan T cells purified from mouse splenocytes, combined with the addition of A2A agonist along with potential A2A or A2A/A2B dual antagonists to evaluate potentiation of T cell cytokine production.
(§2) Briefly, mouse Pan T cells are purified from spleens of BALB/c mice using Pan T cell isolation kit Mouse II (MACS Miltenyi biotech Cat # Order no. 130-095-130) according to manufacturer's protocol. The purified T cells are seeded in Nunc™ 96-Well Polystyrene Round Bottom Microwell Plates in RPMI medium with 10% heat inactivated fetal bovine serum. The cells are rested at 37° C. for 1 h before activating with CD3/CD28 pre-coated beads (Dynabeads™ Mouse T-Activator CD3/CD28; Cat #11456D). After 30 min the cells are treated with varying doses of test antagonist(s). […] After 24 h incubation IL-2 levels in the supernatants and after 48 h incubation IFN-γ levels in the supernatants are measured by ELISAs according to manufacturer's protocol (R&D systems Cat # DY402 (IL-2); DY485 (IFN-γ)). Once the concentrations are calculated, the difference of cytokine concentration of DMSO control and agonist alone control is calculated (called A) and the percentage of rescue by each concentration of antagonist is calculated by using Microsoft Excel. These percentages of cytokine rescue in a dose dependent manner of antagonist is plotted in GraphPad Prism software and IC50 is calculated.

mouse Pan T cells [2] = experiment: mouse Pan T cell IFN-γ rescue from A2A agonist CGS-21680 (ELISA, 48 h); assay type: cell-based; settings: for IC50: Mus musculus, T-cell
From the text: as §1, §2

[3] = pharmacokinetic properties in mouse after single intravenous and oral administration; assay type: in vivo; settings: PK data in mouse; for Feces iv: @0.2 (dose, unit not given); for clearance / half-life / Cmax / Vd: female, plasma, 0.2 mg/kg; for Cmax: dose-normalized to 1 mg/kg; for Vd: read-out: Vss
From the text: The objective of the study was to obtain information on the pharmacokinetic properties of the compounds of the present invention in female Wistar rats/mice following single intravenous and oral administration.
Female Wistar rats/mice (n=6) received either a single intravenous (bolus) injection or an oral administration (by gavage) of the tested compound.
The concentrations of the compounds in plasma, feces were quantified using an UPLC method with tandem mass spectrometric detection (LC-MS/MS) previously developed at the ‘Institute of Drug Metabolism and Pharmacokinetics’. The LC-MS/MS system consisted of a Waters Acquity UPLC coupled to an AB Sciex mass spectrometer API 5500 Q-trap. […] The detection of the compounds was performed using multiple reaction monitoring in the positive ionization mode. Plasma samples were spiked with internal standard (20 μl) and the analyte was extracted from the matrix using tertiary-butyl methyl ether (tBME). The organic phase was evaporated to dryness under a stream of nitrogen. The residue was dissolved in acetonitrile/0.1% formic acid for LC-MS/MS analysis. Feces samples were homogenized with 4-times their volume of an ethanol/water mixture (4:1, v/v). Aliquots of the aqueous-ethanolic extracts were spiked with internal standard, diluted with acetonitrile/water (1:1, v/v) and directly injected into the LC-MS/MS system.
Pharmacokinetic parameters Cmax and tmax were taken from the observed data. […] AUC values were calculated by non-compartmental analysis using the linear up/log down method. Numerical data for mean plasma concentrations and derived pharmacokinetic parameters were rounded to 3 significant digits for presentation.

human A3 receptor = biological target: T1, human A3 receptor (Homo sapiens, UniProt P0DMS8); experiment: functional cAMP (HTRF) assay, recombinant CHO cells expressing human A3 receptor, forskolin, agonist IB-MECA; assay type: cell-based
T1 construct: expressed in transfected cells; host or cells: CHO
T1 sequence (P0DMS8 1-318): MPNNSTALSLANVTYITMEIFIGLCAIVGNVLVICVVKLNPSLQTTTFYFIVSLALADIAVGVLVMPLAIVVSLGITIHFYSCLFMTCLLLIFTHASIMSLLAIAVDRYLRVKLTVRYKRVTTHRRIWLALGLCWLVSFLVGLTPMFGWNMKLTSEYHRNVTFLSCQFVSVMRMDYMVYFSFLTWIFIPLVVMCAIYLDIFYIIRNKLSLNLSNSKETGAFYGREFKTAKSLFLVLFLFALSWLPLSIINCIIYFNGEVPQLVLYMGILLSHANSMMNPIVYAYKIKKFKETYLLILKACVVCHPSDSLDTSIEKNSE
In short: (§3)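 Recombinant CHO lines carrying either receptor receive forskolin, compound and the matching agonist, CPA or IB-MECA. After 30 min, HTRF reagents are added and cAMP is quantified. Values are normalized to inhibitor and neutral DMSO controls, then fitted.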

human A2A receptor = biological target: T2, human A2A receptor (Homo sapiens, UniProt P29274); experiment: functional cAMP (HTRF) assay, recombinant HEK293 cells expressing human A2A receptor, agonist NECA; assay type: cell-based
T2 construct: expressed in transfected cells; host or cells: HEK293
T2 sequence (P29274 whole entry): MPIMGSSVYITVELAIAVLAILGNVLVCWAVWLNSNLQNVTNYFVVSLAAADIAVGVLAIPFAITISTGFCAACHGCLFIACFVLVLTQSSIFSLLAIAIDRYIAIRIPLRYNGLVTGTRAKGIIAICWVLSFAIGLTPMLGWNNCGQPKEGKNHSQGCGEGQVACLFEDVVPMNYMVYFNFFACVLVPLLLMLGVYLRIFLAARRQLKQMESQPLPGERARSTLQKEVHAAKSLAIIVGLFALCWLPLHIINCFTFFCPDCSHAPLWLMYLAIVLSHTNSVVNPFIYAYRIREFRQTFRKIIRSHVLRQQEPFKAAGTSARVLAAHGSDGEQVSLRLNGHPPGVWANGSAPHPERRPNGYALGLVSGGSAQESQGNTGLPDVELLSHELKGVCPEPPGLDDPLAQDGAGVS

A2B receptors [4] = biological target: T3, A2B receptors (Homo sapiens, UniProt P29275); experiment: functional cAMP (HTRF) assay, recombinant HEK293 cells expressing human A2B receptor, agonist NECA; assay type: cell-based; parameters: expressed in transfected cells; host or cells: HEK293
T3 sequence (P29275 1-332): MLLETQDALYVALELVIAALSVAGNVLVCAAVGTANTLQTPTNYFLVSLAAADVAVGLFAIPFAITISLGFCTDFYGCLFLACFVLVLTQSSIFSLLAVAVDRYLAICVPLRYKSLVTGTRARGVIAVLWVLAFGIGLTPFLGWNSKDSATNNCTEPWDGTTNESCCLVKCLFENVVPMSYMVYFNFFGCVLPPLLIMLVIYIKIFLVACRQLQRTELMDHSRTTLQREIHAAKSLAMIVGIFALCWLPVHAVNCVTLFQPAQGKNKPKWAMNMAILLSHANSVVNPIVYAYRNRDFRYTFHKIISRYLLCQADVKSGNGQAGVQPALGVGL

human A1 receptor = biological target: T4, human A1 receptor (Homo sapiens, UniProt P30542); experiment: functional cAMP (HTRF) assay, recombinant CHO cells expressing human A1 receptor, forskolin, agonist CPA; assay type: cell-based
T4 construct: expressed in transfected cells; host or cells: CHO
T4 sequence (P30542 1-326): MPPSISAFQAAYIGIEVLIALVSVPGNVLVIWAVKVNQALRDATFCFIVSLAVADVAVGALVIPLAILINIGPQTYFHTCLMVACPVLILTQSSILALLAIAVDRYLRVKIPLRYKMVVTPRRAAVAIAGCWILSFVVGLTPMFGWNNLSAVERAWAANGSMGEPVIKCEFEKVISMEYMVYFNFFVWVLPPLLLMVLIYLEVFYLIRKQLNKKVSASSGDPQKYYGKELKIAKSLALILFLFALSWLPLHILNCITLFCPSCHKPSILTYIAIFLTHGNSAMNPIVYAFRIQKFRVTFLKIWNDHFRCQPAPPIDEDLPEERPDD
In short: as §3

A2B receptors [5] = biological target: T3, A2B receptors; settings: antagonists; cited from earlier work
[6] = IC50 of cytokine rescue, CGS-21680 1 μM, CD3/CD28 beads

Compound | Feces iv [3] | IC50 (mouse Pan T cells [1]) | IC50 (human A3 receptor) | IC50 (human A2A receptor) | IC50 (mouse Pan T cells [2]) | clearance [3] | half-life [3] | Cmax [3] | Vd [3] | IC50 (A2B receptors [4]) | IC50 (human A1 receptor) | Mouse T-Cell IL-2 (mouse Pan T cells [1]; [6]) | Mouse IFN-γ (mouse Pan T cells [2]; [6]) | affinities on A2B receptors (A2B receptors [5])
CCCn1c(=O)c2[nH]c(-c3ccc(S(=O)(=O)O)cc3)nc2n(CCC)c1=O [DPSPX, 1,3-dipropyl-8-sulphophenylxanthine] |  |  |  |  |  |  |  |  |  |  |  |  |  | mid to high nM range
COc1ccc(-c2cnn(C)c2)c2nc(NC(=O)c3ccc(C(=O)N(C)C)cc3)[nH]c12 [compound 93, N4-[7-methoxy-4-(1-methyl-1H-pyrazol-4-yl)-1H-1,3-benzodiazol-2-yl]-N1,N1-dimethylbenzene-1,4-dicarboxamide] | 42@0.2% | 111 nM | > 1000 nM | < 10 nM | 350 nM | 6.77 mL/min/kg | 46.1 min | 3160 ng/mL | 0.357 L/kg | < 100 nM | > 1000 nM |  |  | 
CCCn1c(=O)[nH]c(=O)c2[nH]cnc21 [enprofylline, 3-n-propylxanthine] |  |  |  |  |  |  |  |  |  |  |  |  |  | mid to high nM range
COc1ccc(-c2cnn(C)c2)c2nc(NC(=O)N3CC[C@@]4(CCCOC4)C3)[nH]c12 [compound 114, (5S)-N-[7-methoxy-4-(1-methyl-1H-pyrazol-4-yl)-1H-1,3-benzodiazol-2-yl]-7-oxa-2-azaspiro[4.5]decane-2-carboxamide] | 9@0.2% | 900 nM | > 1000 nM | < 10 nM | 900 nM | 9.43 mL/min/kg | 66.6 min | 1440 ng/mL | 0.842 L/kg | > 1000 nM | > 1000 nM |  |  | 
O=c1[nH]c(=O)c2nc3ccccc3nc2[nH]1 [alloxazine, 2,4-dioxobenzopteridine] |  |  |  |  |  |  |  |  |  |  |  |  |  | mid to high nM range
COc1ccc(-c2cnn(C)c2)c2nc(NC(=O)c3ccc(Cn4ccnc4)cc3)[nH]c12 [compound 71, 4-[(1H-imidazol-1-yl)methyl]-N-[7-methoxy-4-(1-methyl-1H-pyrazol-4-yl)-1H-1,3-benzodiazol-2-yl]benzamide] |  | 40 nM | < 1000 nM | < 10 nM | 40 nM |  |  |  |  | < 100 nM | > 1000 nM |  |  | 
COc1ccc(-c2ccccc2)c2nc(NC(=O)c3ccc(Cn4ccnc4)cc3)[nH]c12 [compound 15, 4-Imidazol-1-ylmethyl-N-(7-methoxy-4-phenyl-1H-benzoimidazol-2-yl)-benzamide] |  | 1110 nM | < 100 nM | < 10 nM |  |  |  |  |  | < 10 nM | < 1000 nM |  |  | 
CCNCc1ccc(C(=O)Nc2nc3c(-c4ccccc4)ccc(OC)c3[nH]2)cc1 [compound 11, 4-Ethylaminomethyl-N-(7-methoxy-4-phenyl-1H-benzoimidazol-2-yl)-benzamide] |  | 44 nM | > 1000 nM | < 10 nM | 75 nM |  |  |  |  | < 100 nM | > 1000 nM |  |  | 

The next lines start with results.

Feces iv [3] | IC50 (mouse Pan T cells [1]) | IC50 (human A3 receptor) | IC50 (human A2A receptor) | IC50 (mouse Pan T cells [2]) | clearance [3] | half-life [3] | Cmax [3] | Vd [3] | IC50 (A2B receptors [4]) | IC50 (human A1 receptor) | Compound | Mouse T-Cell IL-2 (mouse Pan T cells [1]; [6]) | Mouse IFN-γ (mouse Pan T cells [2]; [6]) | affinities on A2B receptors (A2B receptors [5])
23@0.2% |  |  |  |  |  |  |  |  |  |  | COc1ccc(N2CCOCC2)c2sc(NC(=O)N3CCC(C)(O)CC3)nc12 [Tozadenant, reference compound] | NA (<50% rescue) | NA (<50% rescue) | 
26@0.2% | 1000 nM | > 1000 nM | < 10 nM | 500 nM | 31.7 mL/min/kg | 33.4 min | 892 ng/mL | 1.17 L/kg | < 1000 nM | > 1000 nM | C#CCC1(O)CCN(C(=O)Nc2nc3c(-c4cnn(C)c4)ccc(OC)c3[nH]2)CC1 [compound 92, 4-hydroxy-N-[7-methoxy-4-(1-methyl-1H-pyrazol-4-yl)-1H-1,3-benzodiazol-2-yl]-4-(prop-2-yn-1-yl)piperidine-1-carboxamide] |  |  | 
 | 120 nM |  |  | 220 nM |  |  |  |  |  |  | COc1ccc(-c2cnn(C)c2)c2nc(NC(=O)N3CCC(C)(CO)CC3)[nH]c12 [compound 35, 4-Hydroxymethyl-4-methyl-piperidine-1-carboxylic acid [7-methoxy-4-(1-methyl-1H-pyrazol-4-yl)-1H-benzoimidazol-2-yl]-amide] |  |  | 
 |  |  |  | 800 nM |  |  |  |  |  |  | COc1ccc(-c2cnn(C)c2)c2nc(NC(=O)N3CCC4(CCCOC4)C3)[nH]c12 (stereo not drawn) [compound 67, N-[7-methoxy-4-(1-methyl-1H-pyrazol-4-yl)-1H-1,3-benzodiazol-2-yl]-7-oxa-2-azaspiro[4.5]decane-2-carboxamide] |  |  | 
 |  | < 1000 nM | < 10 nM | 1000 nM |  |  |  |  | < 1000 nM | > 1000 nM | COc1ccc(-c2cnn(C)c2)c2nc(NC(=O)c3ccc(OC(F)(F)F)cc3)[nH]c12 [compound 94, N-[7-methoxy-4-(1-methyl-1H-pyrazol-4-yl)-1H-1,3-benzodiazol-2-yl]-4-(trifluoromethoxy)benzamide] |  |  | 
12.5@0.2% | 100 nM | > 1000 nM | < 10 nM | 80 nM | 22.5 mL/min/kg | 32.9 min | 888 ng/mL | 1.05 L/kg | < 1000 nM | > 1000 nM | COc1ccc(-c2cnn(C)c2)c2nc(NC(=O)c3ccc(CN4CCCC4=O)cc3)[nH]c12 [compound 100, N-[7-methoxy-4-(1-methyl-1H-pyrazol-4-yl)-1H-1,3-benzodiazol-2-yl]-4-[(2-oxopyrrolidin-1-yl)methyl]benzamide] |  |  | 
